Data on seven compounds can be found in ChEMBL document CHEMBL1128318, “Synthesis of novel 2,4-diaminopyrrolo-[2,3-d]pyrimidines with antioxidant, neuroprotective, and antiasthma activity” (J Med Chem, 1995).

Data set [1] is described as follows: The compound was tested for steady state volume of distribution pharmacokinetic parameter in the male Sprague-Dawley rat. It counts as ADME, organism-based. As to conditions: in vivo.
The nature of data set [2]: The compound was tested for Cmax value pharmacokinetic parameter in the male Sprague-Dawley rat. It counts as ADME, organism-based. Particulars: in vivo.
A short description of data set [3]: The compound was tested for tmax value pharmacokinetic parameter in the male Sprague-Dawley rat. As to conditions: in vivo. The class given is ADME, organism-based.
Data set [4] is described as follows: The compound was tested for terminal half-life pharmacokinetic parameter in the male Sprague-Dawley rat. The class given is ADME, organism-based. As to conditions: in vivo.
For data set [5], the species on record is Mus musculus. Kind of data set: The compound was evaluated for increase in neurological status at 1 hr post head injury using a simple grip test in mouse. It counts as functional.
A short description of data set [6]: Oral bioavailability in rat (Sprague-Dawley) (male). The class given is ADME, organism-based. As to conditions: in vivo.
The nature of data set [7]: The compound was tested for systemic clearance pharmacokinetic parameter in the male Sprague-Dawley rat. It counts as ADME, organism-based. Particulars: in vivo.
For data set [8], the species on record is Rattus norvegicus. Kind of data set: The compound was tested for inhibition of [Fe2+]-induced MDA formation in rat brain homogenate. The class given is functional.
For data set [9], the species on record is Mus musculus. Kind of data set: The compound was tested for spinal neuroprotection in mouse. It counts as functional, organism-based.
A short description of data set [10]: The compound was tested for cytoprotective effect against the human astroglial cells. It counts as functional, cell-based.
Data set [11] concerns Rattus norvegicus. As to the kind of experiment: The compound was tested for inhibition of lung eosinophilia in rat at 30mg/kg/day, po. The class given is functional.
Data set [12] deals with Mus musculus. As to the kind of experiment: The compound was tested for inhibition of lung eosinophilia in mouse at 3 mg/kg/day, po. It counts as functional.
Data set [13] has as its system Mus musculus. Kind of data set: The compound was tested for inhibition of lung eosinophilia in mouse at 10 mg/kg/day, po. The class given is functional.
For data set [14], the system named is Mus musculus. Kind of data set: The compound was tested for inhibition of lung eosinophilia in mouse at 30 mg/kg/day, po. It counts as functional.
The subject of data set [15] is Rattus norvegicus. As to the kind of experiment: The compound was tested for inhibition of lung eosinophilia in rat at 10 mg/kg/day, po. The class given is functional.
The subject of data set [16] is Rattus norvegicus. As to the kind of experiment: The compound was tested for inhibition of lung eosinophilia in rat at 3mg/kg/day, po. It counts as functional.
Data set [17] deals with Rattus norvegicus. Kind of data set: The compound was tested for inhibition of lung eosinophilia in rat at 30 mg/kg/day, po. The class given is functional.
For data set [18], the system named is Rattus norvegicus. Kind of data set: The compound was tested for inhibition of lung eosinophilia in rat at 3 mg/kg/day, po. It counts as functional.

As usually defined, the Vd is a proportionality between amount in the body and measured concentration, not a real space. A high value points to extensive tissue distribution. One may read the Cmax as the maximum level reached in the sampled fluid or tissue. In general, Tmax refers to the time from dosing to the highest level. Usually half-life stands for the time needed for the level to fall by half in the phase considered. A low value points to fast loss. Usually bioavailability stands for the share of a dose that reaches the circulation, judged against a reference dose that is usually intravenous. A word on the clearance: it is the rate of elimination divided by the concentration. For orientation: IC50 means the concentration that gives 50% inhibition. Low values mean inhibition by little substance, high ones a need for much substance. The EC50 is the concentration giving half of the maximal effect. A low value points to a more potent agent. For the compound `COc1ccc(-c2cc3c(N4CCCC4)nc(N4CCCC4)nc3n2C)cc1`, the volume of distribution (Vd) in data set [1] amounted to 42.8 L/kg. Also, the Cmax in [2] stood at 600 ng/mL. Besides, in data set [3], the Tmax came to 4 h. For the same compound, in data set [4], the half-life is 24.3 h. Moreover, the Score in [5] was found to be 73%. In addition, the bioavailability in data set [6] came to 59.8%. In addition, the clearance in data set [7] is 20.7 mL/min/kg. The IC50 was found to be 1000 nM in data set [8] and 3400 nM in data set [9]. For the same compound, a half-maximal response in [10] (EC50) required 400 nM.

For orientation: inhibition in vivo means the relative decrease from the control value, in per cent. Low values mean a weak effect, high ones a strong effect. In the case of `c1ccc2c(c1)c1c(N3CCCC3)nc(N3CCCC3)nc1n2CCN1CCOCC1`, the inhibition in vivo at 30 mg/kg/day in data set [11] amounted to 85%; in data set [14], 71%. The inhibition in vivo at 3 mg/kg/day in data set [12] worked out at 53%. For the same compound, the results for the inhibition in vivo at 10 mg/kg/day in [13] and in data set [15] were 62% and 87%, respectively. Also, the Vd in [1] is 1.92 L/kg. Moreover, the Cmax in data set [2] is 14700 ng/mL. Moreover, the Tmax in data set [3] came to 2 h. Also, the half-life in data set [4] was 15.7 h. In [6], the bioavailability stood at 69.9%. The clearance in data set [7] was 2 mL/min/kg. The same compound had an IC50 in data set [9] of 10600 nM. The same compound showed an EC50 in data set [10] of 3000 nM.

For the compound `Cc1cc2c(N3CCCC3)nc(N3CCCC3)nc2n1C`, the inhibition in vivo at 3 mg/kg/day in data set [16] and in [12] was 0% in each case. The figures for the inhibition in vivo at 10 mg/kg/day in data set [13] and in data set [15] were 0% and 27%, respectively. For the same compound, in data set [1], the Vd was found to be 39.7 L/kg. Also, the inhibition in vivo at 30 mg/kg/day in data set [17] is 28%; in data set [14] it was 0%. The compound further registered a Cmax in data set [2] of 5710 ng/mL. In addition, the Tmax in data set [3] was 4 h. For the same compound, the half-life in data set [4] was 10.9 h. Besides, the Score in data set [5] was found to be 100%. Also, the bioavailability in data set [6] was found to be 84.6%. Moreover, in data set [7], the clearance is 8.83 mL/min/kg. Besides, the values for the IC50 in data set [8] and in data set [9] were 1000 nM and 7000 nM, respectively. For the same compound, a half-maximal response in [10] (EC50) required 200 nM.

`Cn1c(-c2ccccc2)cc2c(N3CCCC3)nc(N3CCCC3)nc21`: the Vd in data set [1] is 44 L/kg. In data set [2], this compound displayed a Cmax of 1420 ng/mL. Besides, the Tmax in data set [3] is 4 h. Also, in data set [4], the half-life is 22.1 h. The compound also displayed a Score in data set [5] of 104%. The bioavailability in data set [6] is 55.9%. In data set [7], this compound gave a clearance of 23.7 mL/min/kg. Moreover, the IC50 in data set [8] came to 5000 nM; in [9] it was 1300 nM. Besides, the EC50 in data set [10] worked out at 900 nM.

Regarding `Cn1c2c(c3c(N4CCCC4)nc(N4CCCC4)nc31)CCCC2`, the inhibition in vivo at 30 mg/kg/day is 47% in data set [11] and 41% in data set [14]. For the same compound, the inhibition in vivo at 3 mg/kg/day in data set [18] worked out at 72%; in data set [12] it was 0%. This compound also gave an inhibition in vivo at 10 mg/kg/day in [13] of 31%. This compound gave a Vd in data set [1] of 1.09 L/kg. In addition, in data set [2], the Cmax came out at 40300 ng/mL. Further, the Tmax in data set [3] is 2 h. Moreover, the half-life in data set [4] was 8.9 h. In [5], the Score was determined as 276%. Besides, in [6], the bioavailability turned out to be 70.2%. In data set [7], this compound had a clearance of 1.67 mL/min/kg. The results for the IC50 in [8] and in [9] were 2000 nM and 340 nM, respectively. The response in [10] was half-maximal at 200 nM (EC50).

On to `Cn1c(-c2ccc(O)cc2)cc2c(N3CCCC3)nc(N3CCCC3)nc21`, for which the Vd in data set [1] is 66.2 L/kg. Moreover, the highest level in data set [2] (Cmax) was 720 ng/mL. For the same compound, in data set [3], the Tmax is 8 h. In [4], this compound had a half-life of 6.1 h. Moreover, the Score in [5] was found to be 138%. The compound further yielded a bioavailability in [6] of 31.4%. Besides, the clearance in data set [7] is 38.8 mL/min/kg. The results for the IC50 in [8] and in data set [9] were 1000 nM and 130 nM, respectively. This compound also returned an EC50 in data set [10] of 200 nM.

As for `C1CCc2c(c3c(N4CCCC4)nc(N4CCCC4)nc3n2CCN2CCOCC2)C1`, the inhibition in vivo at 30 mg/kg/day in data set [11] was determined as 62%; in [14] it was 72%. Also, the values for the inhibition in vivo at 3 mg/kg/day in data set [18] and in data set [12] were 13% and 37%, respectively. For the same compound, the inhibition in vivo at 10 mg/kg/day in data set [13] was 56%; in [15] it was 30%. Besides, the Vd in data set [1] worked out at 0.94 L/kg. The same compound displayed a Cmax in data set [2] of 19400 ng/mL. In data set [3], the Tmax worked out at 2 h. Also, the half-life in data set [4] is 11.2 h. The compound further registered a Score in data set [5] of 163%. This compound returned a bioavailability in data set [6] of 78.3%. For the same compound, in data set [7], the clearance was 0.967 mL/min/kg. The same compound gave an IC50 in data set [9] of 1100 nM. In data set [10], this compound returned an EC50 of 300 nM.
